The record followed here is patent publication US12102685B2, “Immodulator peptides covalently modified with small molecules” (priority 2020, dated 2024).

Assay [1] has as its system rat scald model. Description: Rat scald model, nephrilin plus or minus metal (x5A). The format is in vivo, Sprague Dawley rats. As to conditions: male rats, burn, 4 mg/kg sc once daily days 1-7. The method, then: Experiment x5A. Nephrilin peptide (IM3N1) is a designed inhibitor of Rictor complex (also known as mTORC2), an evolutionarily conserved assembly believed to modulate responses to cellular stress. […] This study explores the effect of nephrilin plus iron formulations on clinically relevant outcomes in the rat scald model. Animals were treated with nephrilin by subcutaneous bolus injection on days 1-7 post-burn. Equimolar ferric iron in the formulation improved the positive systemic effects of nephrilin on kidney function, glycemic control, oxidative stress, early hyperinflammation, late inflammasome activation, hyperangiogenesis and body mass, all variables previously shown to bear upon clinically relevant burn injury outcomes. The rat scald model and measurement of clinically relevant variables are disclosed in U.S. Pat. No. 10,369,191. Adult Sprague Dawley rats of both sexes (250-300 gm, Charles River Laboratories, Wilmington, MA, USA) were injected with nephrilin peptide plus or minus equimolar metal (zinc, ferrous iron or ferric iron) once daily by subcutaneous bolus injection, days 1-7; Treatment group sizes were (n=8) for each sex unless otherwise indicated: group S=sham-treated; group B=burn+vehicle; group N1=burn+4 mg/kg nephrilin; group N1/Zn2=burn+4 mg/kg nephrilin/zinc chloride; group N1/Fe2=burn+4 mg/kg nephrilin/ferrous sulphate; groups N1/Fe3 (2, 4 or 8)=burn+2, 4, or 8 mg/kg nephrilin/equimolar ferric chloride. The first dose was administered after completion of the scald procedure. Injection volume was 400 uL. Control animals received the same volume of vehicle.
To make global comparisons of treatment efficacy, we converted values to z-scores. All scores within an efficacy class were averaged, allowing allocation of equal weight to efficacy classes. A composite z-score (average z score across all 7 effect classes) is shown in the last row of the table. This allows direct comparison of efficacy across treatment groups. The sham treatment involves manipulating the animals exactly as in the burn group, but without the burn treatment. The efficacy value for the sham (0.82) is thus the positive control. The negative control is the Burn+vehicle group (−0.61). […] Compared to vehicle or nephrilin treatment alone (−0.31), nephrilin with ferric iron (0.27) is at least twice as efficacious overall. Male rats in the scald model were exposed to vehicle, 2, 4 and 8 mg/kg nephrilin complexed with ferric iron.

Assay [2] relates to rat scald model. Description: Rat scald model, N-terminally modified nephrilin-iron complexes (x5B). The following applies: male rats, burn, 2 mg/kg peptide complexed with ferric iron, sc days 1-7. The format is in vivo, Sprague Dawley rats. The method, then:
Effect of N-terminal modifications on the efficacy of nephrilin IM3N1 peptide in the rat scald model. In this study, five nephrilin-iron binary complexes were compared: IM3N1 (unmodified) and the following: IM3N1vlp (valproic acid), IM3N1dec (decanoic acid), IM3N1fen (fenofibric acid), and IM3N1ibu (ibuprofen). Adult male Sprague Dawley rats (300 gm, Charles River Laboratories, Wilmington, MA, USA) were injected with peptides formulated with equimolar metal ferric iron once daily by subcutaneous bolus injection, days 1-7.
Treatment group sizes were (n=6) for each group: group S=sham-treated; group B=burn+vehicle; group N1=burn+2 mg/kg nephrilin IM3N1; group N1V=burn+2 mg/kg IM3N1vlp; group N1D=burn+2 mg/kg IM3N1dec; group N1F=burn+2 mg/kg IM3N1fen; group N1I=burn+2 mg/kg IM3N1ibu. The first dose was administered after completion of the scald procedure. Injection volume was 400 uL. Control animals received the same volume of vehicle. Rat scald model was performed and measurements taken as described in Experiment x5A.

Assay [3] can be described thus: Alexa488-SA-labelled IM3 binding to metal-charged NTA-coated plate (x2B c). The method, then: NTA-metal-affinity fluorescence assay was performed using 96-well NTA-metal-coated plates readily available from commercial sources such as Qiagen (Germantown, MD). NTA was charged with ferrous or ferric iron, zinc, copper, calcium, vanadium, ruthenium, cobalt, titanium, manganese or other metals. 400 ng of FITC-labeled immodulator peptide (or biotinylated immodulator peptide complexed to Alexa-488-labeled streptavidin) in PBS buffer was added per plate. After incubation at room temperature for 60 minutes, excess peptide was washed off and peptide was detected by measuring fluorescence (excitation 490 nm, emmission 525 nm) in a fluorometer. • (a) Using FITC-labeled IM3 peptide (1 ug/well) in the fluorescent binding assay: • EDTA-treated control: 2,251±1,186 • Ferrous iron: 170,441±11,264 (p<0.001)* • Copper: 13,644±5566 (p<0.05)* • Calcium: 48,822±11,990 (p<0.01)* • *p values are relative to EDTA-treated control • (b) Competition binding assay to ferrous iron, calcium, copper and zinc-charged NTA-coated plates using FITC-labeled IM3 peptide (0.5 uM) and 8× (4 uM) unlabelled competitor peptides IM3N1, IM3N2 (*all comparisons to PBS control are p<0.01); # fluorescent value of binding to […] was set at 100.
• (c) Alexa488-SA-labelled immodulator peptide IM3 (400 ng/well) bound to NTA-coated plate charged with the indicated metals: # fluorescent value of binding to ferrous iron was set at 100. *p<0.01 relative to control.
Ferrous iron # (100±2.6*); Control (no metal): 6.4±3.1; Ferric iron: 94.1±6.6*; Calcium: 47.6±3.7*; Vanadium: 53.9±5.5*; Manganese: 54.4±11.2*; Cobalt: 25.4±2.3*; Copper: 58.4±6.4*; Zinc: 71.4±8.3*; Ruthenium: 67.8±8.3*; (d) Alexa488-SA-labelled immodulator peptide IM1, IM2, IM3, IM4, IM5, IM6 (400 ng/well) were bound to NTA-coated plate charged with the indicated metals: # background (no peptide) control set to 1.0;*p<0.05, **p<0.01 vs “no peptide”

Peptide text beside a SMILES is read from it.

As for “RGVTEDYLRLETLVQKVVSKGFYKKKQCRPSKGRKRGFCW [IM3N1]”, in assay [1], the “1: early inflammation (24-hr plasma IL-6)” value worked out at 50.6 ± 6.1 pg/mL, the “2a: 14-day plasma inflammasome marker IL18” value was determined as 178.1 ± 19.3 pg/mL, the “2b: 14-day plasma inflammasome marker IL1b” value is 124.3 ± 132 pg/mL and the “3a: 14-day plasma hyperangiogenesis marker VEGF-A” value amounted to 56.1 ± 11.7 pg/mL. In assay [1], the “3b: 14-day plasma hyperangiogenesis marker CCL5” value was 609.7 ± 283 pg/mL; the “3c: 14-day plasma hyperangiogenesis marker CXCL5” value turned out to be 1910 ± 380 pg/mL; the “4: glycemic control, 14-day GTT (AUC)” value is 139.3 ± 48.6 mg·dL·h; the “5: kidney function, 14-day plasma creatinine” value is 0.34 ± 0.13 mg/dL. For the same compound, in assay [1], the “6: systemic oxidative stress, 14-day plasma OHDG” value was 585 ± 137 pg/mL; the “7: weight loss (slope)” value came to 2.32 ± 1.01; the “3d: hyperangiogenesis marker PctRedPix” value was 16.51 ± 3.02. In addition, the “Avg: composite z-score (average z score across all 7 effect classes)” value in assay [1] (listed as N1, 4 mg/kg) is given as −0.31 ± 0.35. Further, the “Avg: composite z-score (average z score across all 7 effect classes)” value in assay [1] (listed as nephrilin, 4 mg/kg) is on record as −0.31. In assay [2], the “1: early inflammation (24-hr plasma IL-6)” value came out at 38.5 ± 27.8 pg/mL, the “2a: 14-day plasma inflammasome marker IL18” value was 220.4 ± 32.1 pg/mL, the “2b: 14-day plasma inflammasome marker IL1b” value came to 52.9 ± 7.8 pg/mL and the “3a: 14-day plasma hyperangiogenesis marker VEGF-A” value worked out at 37.8 ± 15.3 pg/mL. In assay [2], the “3b: 14-day plasma hyperangiogenesis marker CCL5” value is 248.3 ± 29.7 pg/mL; the “3c: 14-day plasma hyperangiogenesis marker CXCL5” value was 855 ± 233 pg/mL; the “4: glycemic control, 14-day GTT (AUC)” value amounted to 136.4 ± 69.2 mg·dL·h; the “5: kidney function, 14-day plasma creatinine” value is given as 0.31 ± 0.09 mg/dL. In assay [2], the “6: systemic oxidative stress, 14-day plasma OHDG” value worked out at 374 ± 187 pg/mL; the “7: weight loss (slope)” value stood at 2.99 ± 0.53; the “3d: hyperangiogenesis marker PctRedPix” value is 6.53 ± 3.16.

With `N=C(N)NCCC[C@H](NC(=O)CNC(=O)[C@H](CCCCN)NC(=O)[C@H](CO)NC(=O)[C@@H]1CCCN1C(=O)[C@H](CCCNC(=N)N)NC(=O)[C@H](CS)NC(=O)[C@H](CCC(N)=O)NC(=O)[C@H](CCCCN)NC(=O)[C@H](CCCCN)NC(=O)[C@H](CCCCN)NC(=O)[C@H](Cc1ccc(O)cc1)NC(=O)[C@H](Cc1ccccc1)NC(=O)CNC(=O)[C@H](CCCCN)NC(=O)[C@@H](N)CCCCN)C(=O)N[C@@H](CCCCN)C(=O)N[C@@H](CCCNC(=N)N)C(=O)NCC(=O)N[C@@H](Cc1ccccc1)C(=O)N[C@@H](CS)C(=O)N[C@@H](Cc1c[nH]c2ccccc12)C(=O)O` [IM3] (H-KKGFYKKKQCRPSKGRKRGFCW-OH; N-terminus and C-terminus assumed), the fluorescence was 47.6±3.7 in assay [3] (Calcium, ferrous iron = 100); 25.4±2.3 in assay [3] (Cobalt, ferrous iron = 100); 6.4±3.1 in assay [3] (Control (no metal), ferrous iron = 100); 58.4±6.4 in assay [3] (Copper, ferrous iron = 100); 94.1±6.6 in assay [3] (Ferric iron, ferrous iron = 100); 100±2.6 in assay [3] (Ferrous iron, set at 100, 400 ng/well). Further, the fluorescence in assay [3] (Manganese, ferrous iron = 100) worked out at 54.4±11.2; in assay [3] (Ruthenium, ferrous iron = 100), 67.8±8.3; in assay [3] (Vanadium, ferrous iron = 100), 53.9±5.5; in assay [3] (Zinc, ferrous iron = 100), 71.4±8.3.
